Laboratory results taken from PMC7176092, “Development of the first in vivo GPR17 ligand through an iterative drug discovery pipeline: A novel disease-modifying strategy for multiple sclerosis” (PLoS ONE, 2020).
“And” between values parts separate entries of the source, which are not always exact repeats. Identical values can stand only once. Like-named read-outs stand apart in the source and are kept apart here. Marks after values point to notes of the source that are not given here.

What was measured:
CCR3 = target: T1, CCR3 (Homo sapiens, UniProt P51677); test: Cellular functional assay CCR3
T1 sequence (P51677 1-355): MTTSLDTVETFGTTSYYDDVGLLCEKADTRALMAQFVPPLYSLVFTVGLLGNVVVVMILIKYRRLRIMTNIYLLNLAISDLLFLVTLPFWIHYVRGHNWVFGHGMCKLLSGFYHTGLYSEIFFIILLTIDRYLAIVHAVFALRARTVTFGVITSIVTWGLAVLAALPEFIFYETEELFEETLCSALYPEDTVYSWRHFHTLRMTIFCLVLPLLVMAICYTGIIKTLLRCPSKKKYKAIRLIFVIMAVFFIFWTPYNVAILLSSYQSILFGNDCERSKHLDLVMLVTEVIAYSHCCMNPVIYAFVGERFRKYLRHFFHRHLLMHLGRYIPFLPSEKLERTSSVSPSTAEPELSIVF

CCR4 = target: T2, CCR4 (Homo sapiens, UniProt P51679); test: Cellular functional assay CCR4
T2 sequence (P51679 1-360): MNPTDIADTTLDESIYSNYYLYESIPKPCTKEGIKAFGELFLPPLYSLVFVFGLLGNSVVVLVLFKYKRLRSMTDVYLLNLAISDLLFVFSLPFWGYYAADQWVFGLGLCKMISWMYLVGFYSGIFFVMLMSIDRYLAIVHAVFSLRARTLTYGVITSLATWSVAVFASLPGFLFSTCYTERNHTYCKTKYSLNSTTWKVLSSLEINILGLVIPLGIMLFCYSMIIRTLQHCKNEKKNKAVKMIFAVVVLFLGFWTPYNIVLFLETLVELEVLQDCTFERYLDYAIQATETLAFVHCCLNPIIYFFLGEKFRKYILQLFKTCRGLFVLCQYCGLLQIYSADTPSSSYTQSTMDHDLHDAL

CXCR3 = target: T3, CXCR3 (Homo sapiens, UniProt P49682); test: Cellular functional assay CXCR3
T3 sequence (P49682 1-368): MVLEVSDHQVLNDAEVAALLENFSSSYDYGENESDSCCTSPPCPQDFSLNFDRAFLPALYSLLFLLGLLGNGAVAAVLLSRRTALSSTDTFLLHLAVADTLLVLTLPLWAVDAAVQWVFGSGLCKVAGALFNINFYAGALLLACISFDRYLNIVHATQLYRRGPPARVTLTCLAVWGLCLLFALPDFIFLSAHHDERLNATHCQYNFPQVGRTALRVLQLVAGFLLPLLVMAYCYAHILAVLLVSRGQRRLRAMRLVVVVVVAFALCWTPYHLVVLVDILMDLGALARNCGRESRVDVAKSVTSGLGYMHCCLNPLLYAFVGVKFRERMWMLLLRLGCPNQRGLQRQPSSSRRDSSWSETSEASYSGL

M2 = target: T4, M2 (Homo sapiens, UniProt P08172); test: Binding assay M2; conditions: 100 nM
T4 construct: Eurofins Cerep (external service)
T4 sequence (P08172 1-466): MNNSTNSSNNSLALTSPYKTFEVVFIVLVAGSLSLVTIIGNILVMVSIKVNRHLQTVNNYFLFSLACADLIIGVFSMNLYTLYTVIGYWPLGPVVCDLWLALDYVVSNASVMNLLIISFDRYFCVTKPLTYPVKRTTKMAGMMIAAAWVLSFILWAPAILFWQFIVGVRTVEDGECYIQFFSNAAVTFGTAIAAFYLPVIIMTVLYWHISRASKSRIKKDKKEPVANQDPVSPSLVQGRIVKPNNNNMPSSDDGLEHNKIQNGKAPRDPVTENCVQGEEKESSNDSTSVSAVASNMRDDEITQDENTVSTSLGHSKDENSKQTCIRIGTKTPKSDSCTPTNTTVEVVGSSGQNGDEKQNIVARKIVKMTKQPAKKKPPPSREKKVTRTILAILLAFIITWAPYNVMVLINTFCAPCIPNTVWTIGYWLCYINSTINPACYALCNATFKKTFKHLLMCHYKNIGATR

human GPR17 = target: T5, human GPR17 (Homo sapiens, UniProt Q13304); test: [35S]GTPγS binding assay; format: biochemical
T5 construct: HA; expressed in transfected cells
T5 sequence (Q13304 29-367): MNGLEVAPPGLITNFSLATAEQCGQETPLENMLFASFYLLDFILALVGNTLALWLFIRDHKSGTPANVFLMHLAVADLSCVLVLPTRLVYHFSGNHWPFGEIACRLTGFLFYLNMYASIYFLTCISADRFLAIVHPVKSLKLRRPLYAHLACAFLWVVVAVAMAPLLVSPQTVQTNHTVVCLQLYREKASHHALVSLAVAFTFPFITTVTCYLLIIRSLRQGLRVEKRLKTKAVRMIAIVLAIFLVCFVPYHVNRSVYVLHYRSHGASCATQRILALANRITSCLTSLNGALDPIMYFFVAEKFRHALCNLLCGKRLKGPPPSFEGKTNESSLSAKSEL
Method: [^35S]GTPγS binding assays were carried out as previously described. Briefly, control and astrocytoma 1321N1 cells stably transfected with human pcDNA3.1 (control cells) and human HA-tag GPR17 were homogenized in 5 mM Tris/HCl and 2 mM EDTA (pH 7.4) and centrifuged at 48,000g for 15 min at 4°C. The resulting pellets were washed in 50 mM Tris/HCl and 10 mM MgCl2 (pH 7.4). After protein dosage, aliquots of cell membranes were incubated with increasing concentrations of each investigated ligand (1 pM–10 μM) and GTPγS binding to activated G-proteins was quantified as previously described. Compounds were purchased from two external providers, i.e., Ambinter (Ambinter c/o Greenpharma, Orléans, France http://www.ambinter.com/) and Asinex (http://www.asinex.com/).
For analysis and graphic presentation of [^35S]GTPγS binding data, a nonlinear multipurpose curve fitting computer program (Graph-Pad Prism) was used. All data are presented as the mean ± SEM of three different experiments.
The selected 15 molecules were evaluated in our in-house [^35S]GTPγS functional assay in membranes from cells transfected with human GPR17. […] Moreover, this assay has been already successfully used in the past to measure the ability of both endogenous and novel synthetic compounds to activate GPR17 [25, 31]. All tested molecules were able to potently activate GPR17 with nanomolar/sub-nanomolar affinities. Concentration-response curves obtained for each selected compound are reported in S4 Fig.

ADR2 = target: T6, ADR2 (Homo sapiens, UniProt P07550); test: Binding assay ADR2 (reference ICI 118551); conditions: 100 nM
T6 construct: Eurofins Cerep (external service)
T6 sequence (P07550 whole entry): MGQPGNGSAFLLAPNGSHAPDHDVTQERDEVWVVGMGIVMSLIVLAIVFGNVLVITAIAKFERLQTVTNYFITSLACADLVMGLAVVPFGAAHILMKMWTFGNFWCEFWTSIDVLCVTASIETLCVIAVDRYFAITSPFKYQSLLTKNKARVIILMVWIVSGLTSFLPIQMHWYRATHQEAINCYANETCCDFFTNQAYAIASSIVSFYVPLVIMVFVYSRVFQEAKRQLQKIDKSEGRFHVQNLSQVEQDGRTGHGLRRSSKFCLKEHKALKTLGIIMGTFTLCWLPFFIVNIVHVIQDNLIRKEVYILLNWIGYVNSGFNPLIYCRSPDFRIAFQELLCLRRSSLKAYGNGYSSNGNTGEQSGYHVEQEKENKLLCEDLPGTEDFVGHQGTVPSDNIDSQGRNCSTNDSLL

mGluR1 = target: T7, mGluR1 (Homo sapiens, UniProt Q13255); test: Binding assay mGluR1; conditions: 100 nM
T7 construct: Eurofins Cerep (external service)
T7 sequence (Q13255 19-1194): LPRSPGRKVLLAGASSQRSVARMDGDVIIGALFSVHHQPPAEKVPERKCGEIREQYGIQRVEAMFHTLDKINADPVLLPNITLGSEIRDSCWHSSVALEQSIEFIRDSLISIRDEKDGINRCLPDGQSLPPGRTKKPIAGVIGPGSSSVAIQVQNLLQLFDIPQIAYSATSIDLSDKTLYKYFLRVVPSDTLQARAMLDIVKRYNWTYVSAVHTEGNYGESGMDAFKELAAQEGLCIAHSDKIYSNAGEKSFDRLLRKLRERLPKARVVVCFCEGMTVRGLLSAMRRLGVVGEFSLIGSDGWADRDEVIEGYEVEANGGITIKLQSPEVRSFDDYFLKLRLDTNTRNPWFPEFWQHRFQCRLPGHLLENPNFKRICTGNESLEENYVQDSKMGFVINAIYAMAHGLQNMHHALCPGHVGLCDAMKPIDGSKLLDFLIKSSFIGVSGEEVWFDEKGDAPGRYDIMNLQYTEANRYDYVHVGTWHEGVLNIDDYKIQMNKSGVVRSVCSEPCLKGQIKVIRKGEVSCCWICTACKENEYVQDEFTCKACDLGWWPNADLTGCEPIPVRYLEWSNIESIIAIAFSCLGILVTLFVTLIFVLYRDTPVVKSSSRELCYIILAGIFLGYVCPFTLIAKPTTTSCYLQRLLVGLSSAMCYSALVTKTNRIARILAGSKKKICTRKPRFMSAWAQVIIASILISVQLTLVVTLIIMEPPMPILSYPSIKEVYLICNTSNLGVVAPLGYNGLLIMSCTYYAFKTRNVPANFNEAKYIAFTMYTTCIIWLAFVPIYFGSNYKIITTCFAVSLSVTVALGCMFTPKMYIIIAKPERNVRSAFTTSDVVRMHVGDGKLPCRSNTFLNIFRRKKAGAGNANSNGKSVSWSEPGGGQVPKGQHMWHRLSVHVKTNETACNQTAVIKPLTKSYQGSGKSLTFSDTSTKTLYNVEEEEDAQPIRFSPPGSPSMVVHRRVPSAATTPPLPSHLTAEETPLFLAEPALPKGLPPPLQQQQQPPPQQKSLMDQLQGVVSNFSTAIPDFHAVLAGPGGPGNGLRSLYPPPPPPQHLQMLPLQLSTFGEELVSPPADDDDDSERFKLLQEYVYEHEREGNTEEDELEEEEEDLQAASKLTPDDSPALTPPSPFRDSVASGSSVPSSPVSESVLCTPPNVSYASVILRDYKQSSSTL

[1] = antagonist effect, 100 nM, single replicates 1st and 2nd, 0.1 µM
[2] = read-out: % Inhibition of control agonist response
[3] = read-out: Agonist Response (% of Control), Mean, antagonist effect, 100 nM, mean of 2
[4] = read-out: Agonist Response (% of Control), antagonist effect, 100 nM, single replicates 1st and 2nd
[5] = mean of 2, read-out: % Of control specific binding, Mean
[6] = read-out: % Inhibition of control specific binding
[7] = single replicates 1 and 2, 0.1 µM
[8] = single replicates 1 and 2, read-out: % Of control specific binding

## Cc1ccc(-c2nnc(SCC(=O)Nc3nccs3)[nH]2)cc1 [Compound 9]
CCR3; [1]
  Agonist Response (% of Control): 121.2%
CCR3; [2]
  inhibition at 0.1 µM: -0.9%
CCR3; [3]
  activity at 0.1 µM: 118%
CCR3; [4]
  activity at 0.1 µM: 116%
CCR4; [1]
  Agonist Response (% of Control): 60.7% and 88.2%
CCR4; [2]
  inhibition at 0.1 µM: -0.1%
CCR4; [3]
  activity at 0.1 µM: 74.4%
CXCR3; [1]
  Agonist Response (% of Control): 102.1%
CXCR3; [2]
  inhibition at 0.1 µM: 0.3%
CXCR3; [3]
  activity at 0.1 µM: 102%
CXCR3; [4]
  activity at 0.1 µM: 103%
M2; [5]
  remaining activity at 0.1 µM: 108%
M2; [6]
  inhibition at 0.1 µM: -8%
M2; [7]
  % Of control specific binding: 111.1%
M2; [8]
  remaining activity at 0.1 µM: 104%
Human GPR17; membranes of 1321N1 cells transfected with human GPR17, mean ± SEM of 3 experiments
  EC50: 640 ± 120 pM
Human GPR17; standard LTD4 50 nM set to 100% († compounds)
  % Emax (ratio vs Emax of the standard): 88.5 ^** %
Human GPR17; vs basal, mean ± SEM
  Emax (% vs basal): 127.8 ± 3.0%
ADR2; [5]
  remaining activity at 0.1 µM: 102%
ADR2; [6]
  inhibition at 0.1 µM: -2%
ADR2; [7]
  % Of control specific binding: 108.1%
ADR2; [8]
  remaining activity at 0.1 µM: 95.8%
mGluR1; [5]
  remaining activity at 0.1 µM: 114%
mGluR1; [6]
  inhibition at 0.1 µM: -14%
mGluR1; [7]
  % Of control specific binding: 103.5% and 124.2%
